Where a SMILES comes first, the peptide text is derived from it.
Key:
[1] = molecular target: T1, EV71-2A^pro (Human enterovirus 71, UniProt Q66478); assay: EV71-2Apro inhibition assay; assay type: biochemical
T1 sequence (Q66478 863-1012 limits assumed): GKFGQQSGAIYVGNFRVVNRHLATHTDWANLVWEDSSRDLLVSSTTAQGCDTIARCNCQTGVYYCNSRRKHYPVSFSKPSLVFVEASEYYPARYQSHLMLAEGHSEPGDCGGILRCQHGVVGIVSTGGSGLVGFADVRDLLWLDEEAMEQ

[2] = molecular target: T1, EV71-2A^pro; assay: Kinetic activity assay; assay type: biochemical; conditions: from Km values, relative to native substrate (Km 21.3 μM)

CC[C@H](C)[C@H](NC(=O)[C@H](CCCCN)NC(=O)[C@H](CC(=O)O)NC(=O)[C@@H](N)CCCNC(=N)N)C(=O)NCC(=O)N[C@@H](Cc1ccccc1)C(=O)N[C@@H](CCCNC(=N)N)C(=O)NCC(=O)N[C@@H](CCCCN)C(=O)N[C@@H](Cc1ccccc1)C(=O)NCC(=O)N[C@@H](CCC(N)=O)C(=O)O [Peptide II] (H-RDKIGFRGKFGQ-OH)
IC50 [1]: 12.1 ± 1.2 µM

Dabcyl-RDKIGFRGKFGQDE-Edans-NH2 [Pseudosubstrate II]
higher affinity for EV71-2A^pro than the native substrate [2]: 3 fold

— publication PMC10125330 (ACS Bio & Med Chem Au, 2022)
